Source: patent publication US9120764B2, “Chromene derivatives” (Consejo Superior de Investigaciones Cientificas, priority 2010, dated 2015)

What was measured:
[1] = biological target: T1, interaction between TCR, through CD3ε, and the Nck SH3.1 domain (Homo sapiens, UniProt P16333); test: In vitro "pull-down" assay of the TCR-Nck interaction; assay type: binding; settings: Jurkat lysate, GST-SH3.1(Nck) on agarose beads, Western blot densitometry; FIG. 1
T1 construct: the amino-terminal human Nck1 SH3.1 domain; made in house; host or cells: bacterial cultures (GST-SH3.1); the TCR/CD3ε is endogenous, from a lysate of human Jurkat cells
Protocol: To do so, 10 million from human T cell line Jurkat were stimulated with 10 μg/ml of an anti-CD3 antibody for 5 minutes at 37° C. After the stimulation, the cells were lysed in isotonic buffer containing 0.3% Brij96 detergent. After removing the nucleus and other cellular debris by centrifugation, cell lysate aliquots were incubated with 10 μl of agarose beads covalently bound to glutathione and bound in turn to 5 μg of purified GST-SH3.1 (Nck) protein from bacterial cultures. The GST-SH3.1(Nck) protein corresponds to a fusion protein between glutathione S-transferase (GST) and the amino-terminal human Nck1 SH3.1 domain. Each of the aliquots of the cell lysate were incubated with GST-SH3.1 (Nck) in the presence of the indicated concentrations of inhibitors. After incubation, the agarose beads were collected by centrifugation and the quantity of TCR associated with GST-SH3.1 (Nck) was assessed by SDS-PAGE and Western blot with an antibody against TCR CD3ζ subunit. The quantification of the ratio between the quantity of TCR joined to GST-SH3.1 (Nck) in the presence of each of the concentrations of inhibitors, with respect to the amount that is attached in the absence of inhibitors, was evaluated by densitometry and is expressed under each rail as a percentage (FIG. 1).

[2] = test system: primary T lymphocytes; test: Inhibition of the proliferation of T lymphocytes caused by stimulation of the TCR (CFSE, flow cytometry); assay type: cell-based, human; settings: anti-CD3 10 μg/ml, 3 days, CFSE proliferation index; FIG. 3
Protocol: The effect of compounds ECRA20, ECRA24 and CBM-1 on the ability of the TCR to induce T lymphocyte proliferation was evaluated in primary T lymphocytes obtained from blood of healthy human donors. T lymphocytes were marked permanently with the fluorescent compound Carboxyfluorescein succinimidyl ester (CFSE) and incubated for 3 days at 37° C. on 96-well plates coated with antibody anti-CD3 (10 μg/ml) in the presence of the indicated concentrations of the compounds. Proliferation index was calculated from the intensity of fluorescence of CFSE measured by flow cytometry. As the cells divide they lose CFSE fluorescence because original fluorescence is divided between the daughter cells. This way each division is followed by a […] of CFSE per cell. So it is possible to calculate the number of divisions. Proliferation index is calculated by dividing the sum of the number of divisions by the calculated number of original parent cells, which have not divided any time. Black square indicates the rate of proliferation of lymphocytes stimulated and not treated with compounds and white square lymphocytes not stimulated with anti-CD3 (FIG. 3).

[3] = test system: primary T lymphocytes; test: Inhibition of the production of cytokines by T lymphocytes caused by stimulation of the TCR; assay type: cell-based, human; settings: anti-CD3 10 μg/ml plus anti-CD28 1 μg/ml; IFNγ at 24 hours, TNFα, IL6, IL17a at 48 hours; FIG. 4
Protocol: The effect of the compounds ECRA20, ECRA24, and CBM-1 on the ability of the TCR to induce the secretion of cytokines by T lymphocytes, was evaluated in primary T lymphocytes obtained from blood of healthy human donor. Lymphocytes were stimulated with 10 μg/ml of anti-CD3 plus 1 μg/ml of anti-CD28 in the presence of the indicated quantities of the compounds and the cell supernatants were collected at 24 hours (IFNγ) and 48 hours (TNFα, IL6, and IL17a) to measure the concentration of cytokines secreted in the medium (FIG. 4).

SMILES	effect on the interaction between TCR, through CD3ε, and the Nck SH3.1 domain [1]	proliferation of T lymphocytes in response to stimulation of the TCR [2]	production of cytokines by T lymphocytes caused by stimulation of the TCR [3]
Fc1ccc(C2=C(CN3CCCC3)COc3ccccc32)cc1 [ECRA20, 1-((4-(4-Fluorophenyl)-2H-cromen-3-il)methyl)pyrrolidine]	inhibitory effect	suppress the proliferation of T lymphocytes	inhibit the production of cytokines
COc1ccc2c(c1)C(c1ccc(F)cc1)=C(CN1CCCC1)CO2 [ECRA24, 1-((4-(4-Fluorophenyl)-6-methoxy-2H-chromen-3-yl)methyl)pyrrolidine]	inhibitory effect	suppress the proliferation of T lymphocytes	inhibit the production of cytokines
